pKi: −log10 of the molar value. Activity calls are given as the source filed them. No cut-off for these calls is given here.
Assays:
[1] = Displacement of [3H]muscimol from GABAA receptor in Sprague-Dawley rat brain synaptic membrane
[2] = biological target: T1, GABA-A receptor; alpha-1/beta-3/gamma-2 (Homo sapiens, UniProt P14867+P18507+P28472); assay: Antagonist activity at human GABAA alpha-1-beta-3-gamma-2S expressed in Xenopus oocytes by two-electrode voltage-clamp electrophysiology; assay type: functional, cell-based, Oocyte; conditions: for pKi: read-out: Ki
T1 sequence (P14867 whole entry): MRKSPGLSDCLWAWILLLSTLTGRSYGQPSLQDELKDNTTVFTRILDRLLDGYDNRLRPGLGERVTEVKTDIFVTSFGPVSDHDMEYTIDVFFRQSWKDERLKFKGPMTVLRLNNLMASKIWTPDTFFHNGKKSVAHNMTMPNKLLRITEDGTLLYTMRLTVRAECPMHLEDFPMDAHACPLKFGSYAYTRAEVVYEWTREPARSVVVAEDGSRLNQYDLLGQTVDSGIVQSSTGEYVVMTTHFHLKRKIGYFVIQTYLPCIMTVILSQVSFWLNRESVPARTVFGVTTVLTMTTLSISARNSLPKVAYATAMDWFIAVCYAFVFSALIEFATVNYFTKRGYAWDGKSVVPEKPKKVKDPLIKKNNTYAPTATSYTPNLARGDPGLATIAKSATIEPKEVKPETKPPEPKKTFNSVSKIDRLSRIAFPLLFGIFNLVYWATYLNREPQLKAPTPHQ
T1 sequence (P18507 whole entry): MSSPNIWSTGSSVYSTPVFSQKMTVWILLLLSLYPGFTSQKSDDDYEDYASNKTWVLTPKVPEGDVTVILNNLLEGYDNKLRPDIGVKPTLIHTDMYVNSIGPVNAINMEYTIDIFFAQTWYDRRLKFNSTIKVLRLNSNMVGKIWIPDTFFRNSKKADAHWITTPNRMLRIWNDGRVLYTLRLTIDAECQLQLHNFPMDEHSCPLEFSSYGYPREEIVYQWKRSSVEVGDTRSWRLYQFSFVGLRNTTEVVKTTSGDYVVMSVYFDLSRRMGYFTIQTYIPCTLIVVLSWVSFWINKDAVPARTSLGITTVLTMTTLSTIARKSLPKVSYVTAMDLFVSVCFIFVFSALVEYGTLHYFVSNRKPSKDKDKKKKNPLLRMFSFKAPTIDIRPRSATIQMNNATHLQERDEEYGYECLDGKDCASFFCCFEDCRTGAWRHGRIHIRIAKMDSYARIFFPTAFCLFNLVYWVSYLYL
T1 sequence (P28472 whole entry): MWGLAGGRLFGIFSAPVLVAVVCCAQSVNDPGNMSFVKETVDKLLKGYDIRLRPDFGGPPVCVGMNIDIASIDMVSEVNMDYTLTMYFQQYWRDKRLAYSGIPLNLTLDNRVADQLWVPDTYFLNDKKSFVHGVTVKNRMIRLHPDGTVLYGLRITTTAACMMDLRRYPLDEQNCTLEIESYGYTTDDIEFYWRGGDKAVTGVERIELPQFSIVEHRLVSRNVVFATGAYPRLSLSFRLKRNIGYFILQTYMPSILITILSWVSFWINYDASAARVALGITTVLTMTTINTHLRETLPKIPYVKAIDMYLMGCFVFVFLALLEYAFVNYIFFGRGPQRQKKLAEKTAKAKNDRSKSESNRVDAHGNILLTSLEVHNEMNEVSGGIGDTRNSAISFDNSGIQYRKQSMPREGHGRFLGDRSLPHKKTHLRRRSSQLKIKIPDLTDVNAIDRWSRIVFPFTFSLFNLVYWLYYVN

Rattus norvegicus = organism: Rattus norvegicus; assay: Displacement of [3H]GABA from GABAB receptor in Sprague-Dawley rat brain synaptic membrane at 100 uM

| Structure (SMILES) | pKi [1] | Log Ki [1] | pKi [2] | Activity (Rattus norvegicus) | Ki ([2]; read-out: Log Ki (converted)) |
| --- | --- | --- | --- | --- | --- |
| Br.CC(C)(C)c1ccc(-c2c(O)noc2C2CCNCC2)cc1 | 5.16 | -5.16 | 6.59 | inactive | – |
| Br.Oc1noc(C2CCNCC2)c1-c1cc(Cl)cc(Cl)c1 | 7.11 | -7.11 | 7.17 | inactive | – |
| Br.Oc1noc(C2CCNCC2)c1-c1cccc(Cl)c1 | 7.24 | -7.24 | 7.32 | inactive | – |
| Oc1noc(C2CCNCC2)c1Cc1ccc2ccccc2c1 | 7.31 | – | – | inactive | – |
| Br.Oc1noc(C2CCNCC2)c1-c1ccc(-c2ccccc2)cc1 | 6.71 | -6.71 | 7.15 | inactive | – |
| Br.Oc1noc(C2CCNCC2)c1-c1ccc(Oc2ccccc2)cc1 | 7.15 | -7.15 | 8.10 | inactive | – |
| Oc1noc(C2CCNCC2)c1Cc1ccc2ccccc2c1-c1ccccc1 | 7.68 | – | 6.70 | inactive | – |
| Br.Oc1noc(C2CCNCC2)c1-c1ccsc1 | 6.50 | -6.5 | 7.12 | inactive | – |
| Br.Oc1noc(C2CCNCC2)c1-c1ccccc1Cl | 6.07 | -6.07 | 6.89 | inactive | – |
| Br.O=[N+]([O-])c1cccc(-c2c(O)noc2C2CCNCC2)c1 | 6.63 | -6.63 | 6.86 | inactive | – |
| Oc1noc(C2CCNCC2)c1-c1ccccc1 | 6.66 | – | 6.80 | inactive | – |
| Oc1cc(C2CCNCC2)on1 | – | – | – | inactive | – |
| Oc1noc(C2CCNCC2)c1-c1cccc2ccccc12 | 6.09 | – | – | inactive | – |
| Br.Oc1noc(C2CCNCC2)c1-c1cccnc1 | 6.02 | -6.02 | 6.37 | inactive | 479 nM |
| Br.Oc1noc(C2CCNCC2)c1-c1cccc(-c2ccccc2)c1 | 8.00 | -8 | 8.00 | inactive | – |
| O=c1[nH]oc(C2CCNCC2)c1-c1cccc2ccccc12 | – | – | 6.48 | – | – |
| Br.Br.Nc1cccc(-c2c(O)noc2C2CCNCC2)c1 | 7.08 | -7.07 | 7.23 | inactive | – |
| Br.Oc1noc(C2CCNCC2)c1-c1csc(-c2ccccc2)c1 | 7.60 | -7.61 | 8.05 | inactive | – |
| Br.Oc1noc(C2CCNCC2)c1-c1ccc(Cl)cc1 | 5.62 | -5.62 | 6.69 | inactive | – |
| Oc1noc(C2CCNCC2)c1-c1ccc2ccccc2c1 | 7.44 | – | 6.85 | inactive | – |
